Data on three compounds can be found in patent US20050209336A1, “EP2 receptor agonists” (priority 2003, published 2005).

Read-outs that look alike come from different tables or passages of the source.

In assay [1] the target is T1, human EP2 receptor (Homo sapiens, UniProt P43116).
T1 construct: expressed in transfected cells; host or cells: HEK cells (HEK-EP2)
As to the kind of experiment: cAMP production in HEK cells stably expressing the human EP2 receptor. As to conditions: 15 min stimulation, 4 experiments. It is filed as cell-based. Here is the method: The following describes an in vitro assay to determine the effect of compounds on cyclase production, that is, to determine their functional efficacy at the EP2 receptor.
HEK cells stably expressing the human EP2 receptor were used for these assays. HEK-EP2 cells were cultured in 96-well, poly-L-lysine coated plates at a density of 50,000 cells/well, and grown to confluence in humidified […] at 37° C. Culture medium was DMEM supplemented with 10% foetal bovine serum, 100 U/ml penicillin, […], 2.5 µg/ml fungizone, 2 mM glutamine, 250 µg/ml geneticin and 200 µg/ml zeocin.
On reaching confluence, culture media was rinsed off using DMEM with no additions, before 175 µl assay buffer (DMEM containing 1 mM 3-isobutyl-1-methylxanthine and 3 µM indomethacin) was added to each well. This was allowed to incubate for 1 hr before the cells were stimulated with the test compounds (in triplicate) at final concentrations of 10^−9M to 10^−5M for 15 minutes. The assay was terminated by the addition of 25 µl 1M hydrochloric acid. Plates were then frozen for a minimum of 12 hours or until required for radioligand displacement assay.
Plates were thawed quickly at 37° C., and neutralised with 25 µl 1M sodium hydroxide. 30 µl of supernatant was transferred to 96-well Millipore (MAFNOB) plates coated with 0.1% Polyethylenimine. These supernatants were diluted by addition of 90[…]1 cAMP assay buffer (50 mM Tris, 5 mM EDTA, pH 7.0). A cAMP standard curve (10^−11M to 10^−5M) was constructed. 15 µl of 3′:5′-cAMP-dependent protein kinase (final concentration 8 µg/well), and 15 µl [^3H]-cAMP (final concentration 2 nM/well) were added to each well.
Plates were incubated on ice for 2 hours, before bound and free radiolabel were separated by vacuum filtration harvesting on the Millipore manifold, using ice cold water as the termination buffer. Filter plates were allowed to dry overnight, before addition of 50 µl Microscint. Radioactivity was determined using the Microbeta Trilux scintillation counter. cAMP accumulation was determined from the standard curve, and the values plotted as pmoles cAMP/well.
A general note: Changes in cAMP serve as a functional read-out for many G protein-coupled receptors.

In assay [2] the test system is IL-2 production by OKT3 activated T cells. Put plainly: Lymphocyte assay: IL-2 production by anti-CD3 (OKT3) stimulated T cells. The assay is classed as cell-based, human. The note with it: Homo sapiens, T-cell, 24 h, inhibition of IL-2 production. The text has this:
(§1) Lymphocytes are mononuclear leukocytes, which participate in specific immune responses to foreign antigens and in the manifestation of auto-immune diseases. T lymphocytes produce IL-2, a key factor for lymphocyte activation and proliferation, in response to antigen stimulation via the CD3-T cell receptor complex and the pathway involved in this response is the NF-AT. […] A lymphocyte assay was designed to model this response and to determine the effect of test compound on IL-2 production by anti-CD3-stimulated T cells isolated from peripheral blood. This assay uses a sub-optimal dose of an anti-CD3 monoclonal antibody (OKT3, 25 ng/ml) immobilised to a 96-well plate to stimulate a T cell response. The level of IL-2 released into the cell culture supernatants was quantified using a standard sandwich ELISA. Similarly, other cytokines such as TNFα and IFN-γ can also be measured in the same assay.
(§2) Human peripheral blood mononuclear cells from healthy volunteers were isolated from whole blood by Ficoll-Hypaque density centrifugation and adherence to plastic. The non-adherent lymphocyte fraction was used to set up the lymphocyte assay and the adherent monocytes were then recovered by scraping and subsequently used in the monocyte assay.
(§3) Lymphocytes were then seeded to a 96-well plate pre-coated with anti-CD3 monoclonal antibody (OKT3) at 25 ng/ml and immediately, the test compounds (Peak 1, mixture 1 acid; Peak 1, mixture 2 acid; AH-13205 racemate; PGE2) in appropriate dilutions were added to corresponding wells according to the experimental design. The plate was incubated for 24 hours at 37° C. with 5% CO2 in air and supernatants were recovered for ELISA analysis at the end of incubation period. The levels of IFN-γ was assessed by using the ProteoPlex 16 well human cytokine array assay kit according to the manufacturer's instruction.

Assay [3] addresses T1, human EP2 receptor. As to the kind of experiment: Radioligand ([3H]PGE2) competition displacement binding, human EP2 receptor membranes. As to conditions: for Ki: human EP2 membranes, [3H]PGE2 displacement, Cheng-Prusoff, mean of 4 experiments, read-out: pKi EP2 (converted). Here is the method:
Membranes were prepared from cells stably transfected with human EP receptor cDNA. In brief, cells were cultured to confluency, scraped from culture flasks, and centrifuged (800 g, 8 minutes, 4° C.). Cells were twice washed in ice cold homogenisation buffer containing 10 mMTris-HCl, 1 mM EDTA.2Na, 250 mM sucrose, 1 mM PMSF, 0.3 mM indomethacin, pH 7.4, homogenised and re-centrifuged as before. The supernatant was stored on ice and pellets re-homogenised and re-spun. Supernatants were pooled and centrifuged at 40000 g, 10 minutes, 4° C. Resultant membrane pellets were stored at −80° C. until use.
For assay, membranes expressing human EP4, EP3, EP2 or EP1 receptors were incubated in Millipore (MHVBN45) plates containing assay buffer, radiolabelled [^3H]PGE2 and 0.1 to 10 000 nM concentrations of compounds. Incubations were performed at suitable temperatures and for suitable times to allow equilibrium to be reached. Non-specific binding was determined in the presence of 10 uM PGE2. Bound and free radiolabel was separated by vacuum manifold filtration using appropriate wash buffers, and bound radiolabel was determined by scintillation counting. Constituents of each of the buffers are included in table 4 below.
The affinity or pKi of each compound for each receptor was calculated from the concentration causing 50% radioligand displacement (IC50) using the Cheng-Prusoff equation: [formula]
This approach follows that set out in Kenakin, T. P., Pharmacologic analysis of drug receptor interaction. Raven Press, New York, 2nd edition.

The test system of assay [4] is TNFα production by lymphocytes. As to the kind of experiment: Lymphocyte assay: TNFα production. The assay is classed as cell-based, human. As to conditions: Homo sapiens, Lymphocyte, inhibition of TNFα production by lymphocytes, mean of three donors.
Text: as §1, §2, §3

The mark [5] stands for this setting: log scale, read-out: Mean Log (EC50) (converted).
Setting [6] is: mean of four donors (FIG. 9, table 7), read-out: Mean EC50.
Where [7] appears, read: log scale, mean of four donors (FIG. 9, table 7), read-out: Mean Log (EC50) (converted).

T1 sequence (P43116 whole entry): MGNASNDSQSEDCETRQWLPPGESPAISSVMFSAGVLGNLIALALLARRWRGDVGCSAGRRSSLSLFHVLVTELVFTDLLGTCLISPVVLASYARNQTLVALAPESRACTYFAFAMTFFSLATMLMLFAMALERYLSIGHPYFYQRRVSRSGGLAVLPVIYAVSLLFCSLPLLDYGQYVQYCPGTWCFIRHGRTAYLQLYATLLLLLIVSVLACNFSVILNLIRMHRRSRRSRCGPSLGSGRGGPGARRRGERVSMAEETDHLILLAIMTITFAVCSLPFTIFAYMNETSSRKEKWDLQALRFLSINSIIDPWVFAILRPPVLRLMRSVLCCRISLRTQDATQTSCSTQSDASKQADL

What is called EC50 is the midpoint of the concentration-response curve. For the compound `CCCCCC(O)c1ccc(C2CCC(=O)C2CCCCCCC(=O)O)cc1` (racemic) [AH13205, (±)-trans-2-[4-(1-hydroxyhexyl)phenyl]-5-oxo-cyclopentaneheptanoic acid, reference compound], the concentration giving a half-maximal response (EC50) at human EP2 receptor [1] (setting [5]) was 32.4 nM; in assay [2] (setting [6]), 2820 nM; in assay [2] (setting [7]), 2820 nM. Further, on human EP2 receptor [3], the Ki was 398 nM.
In the case of `CCCCC[C@H](O)c1ccc([C@H]2CCC(=O)[C@@H]2CCCCCCC(=O)O)cc1` (single isomer, unassigned) [Peak 1, Mixture 1 acid], the EC50 was 10 nM at human EP2 receptor [1] (read-out: Mean EC50); 9.77 nM on human EP2 receptor [1] (setting [5]); 2330 nM in assay [4] (read-out: Mean EC50); 2330 nM in assay [4] (setting [5]); 986 nM in assay [2] (setting [6]); 1320 nM in assay [2] (mean of three to five donors (FIG. 10, table 8), read-out: Mean EC50). The EC50 in assay [2] (setting [7]) is 986 nM; in assay [2] (log scale, mean of three to five donors (FIG. 10, table 8), read-out: Mean Log (EC50) (converted)) it was 1320 nM. Moreover, the Ki on human EP2 receptor [3] is 79.4 nM.
On to `CCCCC[C@@H](O)c1ccc([C@H]2CCC(=O)[C@@H]2CCCCCCC(=O)O)cc1` (single isomer, unassigned) [Peak 1, Mixture 2 acid], for which the EC50 at human EP2 receptor [1] (read-out: Mean EC50) came out at 56 nM. Moreover, the “selectivity for EP2 over other EP receptors (from table 5)” value at human EP2 receptor [3] (comparison among the stereoisomers) is listed as “most selective”. At human EP2 receptor [3], the Ki was 126 nM.
